Experimental data: patent US20260053811A1, “METHODS OF TREATING HYPERTENSION IN OBESE SUBJECTS” (Mineralys Therapeutics, Inc., priority 2022, published 2026)

System: hypertensive subjects
Assay: 24-hour ambulatory blood pressure monitoring (ABPM), incl. nighttime dip
Type: in vivo, human
Conditions: Part 1
Experimental: Ambulatory blood pressure monitoring was accomplished with an ambulatory blood pressure monitoring device that consists of a blood pressure cuff worn on a subject's arm attached to a small recording device that is typically attached to the subject's belt or waistband.
The ABPM device is worn for 24 hours. Throughout that period, the device records the subject's blood pressure at regular intervals, during the subject's routine daily activities and while they are sleeping. The ABPM thus provides a complete record of the subject's blood pressure over a 24-hour period.
24-hour ABPM was measured in the clinic at baseline and Study Week 7. If, for any reason, the ABPM procedure was deemed a failure at the end of Study Week 7, it may have been repeated at Study Week 8 and therefore no imputation was employed regardless of use of rescue medications. Additionally, ABPM was also collected at the end of Study Week 4 in Part 2. If a repeat test was performed, it supersedes the original test results for that visit.
Specific derived variables based on ABPM measurements include mean 24-hour, mean Daytime, and mean Nighttime of SBP, DBP, and heart rate.
Change from baseline to Week 7 in 24-hour mean SBP (and DBP) based on ABPM will be analyzed using an ANCOVA with a term for treatment group and a baseline mean 24-hour value as a covariate.
The nighttime dip is defined as
100%×(mean daytime SBP−mean nighttime SBP)/mean daytime SBP
It is expressed as a percentage and is summarized by treatment group and visit using descriptive statistics. In addition, the number and percentage of subjects with nighttime dip in each of the dipper categories (Bloomfield & Park, 2015) is presented by treatment group and visit. The categories are: • (a) <10% • (b) 10-20% inclusive • (c) >20%
Secondary endpoints of this study were: • (a) Change in 24-hour ambulatory blood pressure monitoring (ABPM) parameters (systolic and diastolic) from baseline to the end of Study Week 7. • (b) Change in office-measured SBP from baseline to the end of Study Weeks 1, 2, 3, 4, 5, 6, and 7. • (c) Change in office-measured diastolic blood pressure (DBP) from baseline to the end of Study Weeks 1, 2, 3, 4, 5, 6, 7, and 8. • (d) Proportion of subjects who achieve office-measured BP of ≤130/80 mm Hg by the end of Study Week 8.

[1] = 25 mg BID, End of Treatment, FAS post-hoc

For `CC(=O)N[C@H]1CC[C@H](NC(=O)CN2CCN(c3nncc(-c4ccc(C)cc4)n3)CC2)CC1` [Compound A HBr], the “Daytime Mean SBP (ABPM), Mean (SD)” value (12.5 mg QD, EoT, FAS) was 141.13 (15.62) mmHg, the “Nighttime Mean DBP (ABPM), Mean (SD)” value (12.5 mg QD, EoT, FAS) was 74.29 (9.59) mmHg and the “Nighttime Mean SBP (ABPM), Mean (SD)” value (12.5 mg QD, EoT, FAS) was 132.00 (18.11) mmHg. The “Subjects with nighttime dip 10-20% in 24-hour systolic ABPM” value (12.5 mg QD, EoT, FAS) was 5 (35.7) n (%), the “Subjects with nighttime dip <10% in 24-hour systolic ABPM” value (12.5 mg QD, EoT, FAS) was 9 (64.3) n (%) and the “Subjects with nighttime dip >20% in 24-hour systolic ABPM” value (12.5 mg QD, EoT, FAS) was 0 n (%). The “24-hr Mean DBP (ABPM) CFB to EoT, Mean (SD)” value (12.5 mg QD, FAS) was −2.27 (8.35) mmHg, the “24-hr Mean MAP (ABPM) CFB to EoT, Mean (SD)” value (12.5 mg QD, FAS) was −3.73 (12.21) mmHg and the “24-hr Mean SBP (ABPM) CFB to EoT, Mean (SD)” value (12.5 mg QD, FAS) was −5.20 (16.55) mmHg. The “Daytime Mean DBP (ABPM) CFB to EoT, Mean (SD)” value (12.5 mg QD, FAS) was −2.60 (8.43) mmHg, the “Daytime Mean SBP (ABPM) CFB to EoT, Mean (SD)” value (12.5 mg QD, FAS) was −4.80 (15.10) mmHg and the “Nighttime Mean DBP (ABPM) CFB to EoT, Mean (SD)” value (12.5 mg QD, FAS) was −3.21 (9.55) mmHg. The “Nighttime Mean SBP (ABPM) CFB to EoT, Mean (SD)” value (12.5 mg QD, FAS) was −5.43 (20.36) mmHg, the “LSM Δ with Placebo, 24-hr DBP (ABPM, ANCOVA)” value [1] was −5.13 mmHg and the “LSM Δ with Placebo, 24-hr Mean MAP (ABPM, ANCOVA)” value [1] was −6.68 mmHg. For the same molecule, the “LSM Δ with Placebo, 24-hr SBP (ABPM, ANCOVA)” value [1] was −8.04 mmHg, the “LSM Δ with Placebo, Daytime Mean DBP (ABPM, ANCOVA)” value [1] was −5.64 mmHg and the “LSM Δ with Placebo, Daytime Mean SBP (ABPM, ANCOVA)” value [1] was −8.76 mmHg. The “LSM Δ with Placebo, Mean Central DBP (ABPM, ANCOVA)” value [1] was −7.36 mmHg, the “LSM Δ with Placebo, Mean Central Mean BP (ABPM, ANCOVA)” value [1] was −8.87 mmHg and the “LSM Δ with Placebo, Mean Central SBP (ABPM, ANCOVA)” value [1] was −10.19 mmHg. For the same molecule, the “LSM Δ with Placebo, Nighttime Mean DBP (ABPM, ANCOVA)” value [1] was −3.28 mmHg, the “LSM Δ with Placebo, Nighttime Mean SBP (ABPM, ANCOVA)” value [1] was −4.66 mmHg and the “24-hr Mean DBP (ABPM), Mean (SD)” value (25 mg BID, EoT, FAS) was 76.50 (10.59) mmHg. For the same molecule, the “24-hr Mean MAP (ABPM), Mean (SD)” value (25 mg BID, EoT, FAS) was 103.10 (10.92) mmHg, the “24-hr Mean SBP (ABPM), Mean (SD)” value (25 mg BID, EoT, FAS) was 129.69 (12.57) mmHg and the “Daytime Mean DBP (ABPM), Mean (SD)” value (25 mg BID, EoT, FAS) was 79.04 (10.41) mmHg. The “Daytime Mean SBP (ABPM), Mean (SD)” value (25 mg BID, EoT, FAS) was 132.58 (13.62) mmHg, the “Nighttime Mean DBP (ABPM), Mean (SD)” value (25 mg BID, EoT, FAS) was 71.38 (11.94) mmHg and the “Nighttime Mean SBP (ABPM), Mean (SD)” value (25 mg BID, EoT, FAS) was 123.92 (12.17) mmHg. For the same molecule, the “Subjects with nighttime dip 10-20% in 24-hour systolic ABPM” value (25 mg BID, EoT, FAS) was 4 (16.7) n (%), the “Subjects with nighttime dip <10% in 24-hour systolic ABPM” value (25 mg BID, EoT, FAS) was 19 (79.2) n (%) and the “Subjects with nighttime dip >20% in 24-hour systolic ABPM” value (25 mg BID, EoT, FAS) was 1 (4.2) n (%). The “24-hr Mean DBP (ABPM) CFB to EoT, Mean (SD)” value (25 mg BID, FAS) was −6.12 (9.77) mmHg, the “24-hr Mean MAP (ABPM) CFB to EoT, Mean (SD)” value (25 mg BID, FAS) was −7.42 (12.49) mmHg and the “24-hr Mean SBP (ABPM) CFB to EoT, Mean (SD)” value (25 mg BID, FAS) was −8.73 (15.67) mmHg. The “Daytime Mean DBP (ABPM) CFB to EoT, Mean (SD)” value (25 mg BID, FAS) was −6.23 (10.43) mmHg, the “Daytime Mean SBP (ABPM) CFB to EoT, Mean (SD)” value (25 mg BID, FAS) was −9.08 (17.41) mmHg and the “Nighttime Mean DBP (ABPM) CFB to EoT, Mean (SD)” value (25 mg BID, FAS) was −4.13 (10.86) mmHg. The “Nighttime Mean SBP (ABPM) CFB to EoT, Mean (SD)” value (25 mg BID, FAS) was −5.96 (15.37) mmHg and the “LSM Δ with Placebo, 24-hr DBP (ABPM, ANCOVA)” value (50 mg QD, End of Treatment, FAS post-hoc) was −2.74 mmHg.
